According to patent US8940909B2, “Indicator platform” (Biosynth AG, priority 2009, dated 2015):

Legend:
Type in all cases: cell-based
[1] = system: Escherichia coli (O157:H7) 60; assay: IO staining of colonies of beta-D-galactosidase positive/negative bacteria (Table IVb); conditions: Escherichia coli (O157:H7) strain 60, b-gal +; 24 h on Nutrient Agar, 150 mg/l indicator, 100 mg/l IPTG
[2] = system: Enterobacter aerogenes 242; assay: as above; conditions: Enterobacter aerogenes strain 242, b-gal +; 24 h on Nutrient Agar, 150 mg/l indicator, 100 mg/l IPTG; as to C: Color of colonies: key: −: absent; +/−: weak; +: strong; ++: very strong; as to G: Growth of colonies: key: −: absent; +/−: weak; +: strong; ++: very strong
[3] = system: Shigella dysenteriae Serovar 1 131; assay: as above; conditions: Shigella dysenteriae Serovar 1 strain 131, b-gal +/−; 24 h on Nutrient Agar, 150 mg/l indicator, 100 mg/l IPTG
Staphylococcus aureus 2 = assay: as above; conditions: Staphylococcus aureus strain 2, b-gal −, 24 h on Nutrient Agar, 150 mg/l indicator, 100 mg/l IPTG; as to F: Fluorescence of colonies: key: −: absent; +/−: weak; +: strong; ++: very strong
Shigella sonnei 133 = assay: as above; conditions: Shigella sonnei strain 133, b-gal +/−; 24 h on Nutrient Agar, 150 mg/l indicator, 100 mg/l IPTG; as to C: Color of colonies: key: −: absent; +/−: weak; +: strong; ++: very strong; as to G: Growth of colonies: key: −: absent; +/−: weak; +: strong; ++: very strong
[4] = system: Klebsiella pneumoniae 164; assay: as above; conditions: Klebsiella pneumoniae strain 164, b-gal +; 24 h on Nutrient Agar, 150 mg/l indicator, 100 mg/l IPTG; as to C: Color of colonies: key: −: absent; +/−: weak; +: strong; ++: very strong; as to G: Growth of colonies: key: −: absent; +/−: weak; +: strong; ++: very strong
[5] = system: Salmonella enteritidis 43; assay: as above; conditions: Salmonella enteritidis strain 43, b-gal −; 24 h on Nutrient Agar, 150 mg/l indicator, 100 mg/l IPTG; also: key: −: absent; +/−: weak; +: strong; ++: very strong
[6] = system: Streptococcus agalactiae 195; assay: as above; conditions: Streptococcus agalactiae strain 195, b-gal −; 24 h on Nutrient Agar, 150 mg/l indicator, 100 mg/l IPTG; as to C: Color of colonies: key: −: absent; +/−: weak; +: strong; ++: very strong; as to F: Fluorescence of colonies: key: −: absent; +/−: weak; +: strong; ++: very strong
Enterobacter cloacae 245 = assay: as above; conditions: Enterobacter cloacae strain 245, b-gal +; 24 h on Nutrient Agar, 150 mg/l indicator, 100 mg/l IPTG; as to C: Color of colonies: key: −: absent; +/−: weak; +: strong; ++: very strong; as to G: Growth of colonies: key: −: absent; +/−: weak; +: strong; ++: very strong
Aeromonas hydrophila 292 = assay: as above; conditions: Aeromonas hydrophila strain 292, b-gal +; 24 h on Nutrient Agar, 150 mg/l indicator, 100 mg/l IPTG; as to G: Growth of colonies: key: −: absent; +/−: weak; +: strong; ++: very strong
[7] = system: Staphylococcus saprophyticus 273; assay: as above; conditions: Staphylococcus saprophyticus strain 273, b-gal +; 24 h on Nutrient Agar, 150 mg/l indicator, 100 mg/l IPTG; as to G: Growth of colonies: key: −: absent; +/−: weak; +: strong; ++: very strong
Escherichia coli 61 = assay: as above; conditions: Escherichia coli strain 61, b-gal +; 24 h on Nutrient Agar, 150 mg/l indicator, 100 mg/l IPTG; as to C: Color of colonies: key: −: absent; +/−: weak; +: strong; ++: very strong; as to G: Growth of colonies: key: −: absent; +/−: weak; +: strong; ++: very strong
Bacillus subtilis 65 = assay: as above; conditions: Bacillus subtilis strain 65, b-gal −; 24 h on Nutrient Agar, 150 mg/l indicator, 100 mg/l IPTG; as to C: Color of colonies: key: −: absent; +/−: weak; +: strong; ++: very strong; as to F: Fluorescence of colonies: key: −: absent; +/−: weak; +: strong; ++: very strong
[8] = system: Pseudomonas aeruginosa 168; assay: as above; conditions: Pseudomonas aeruginosa strain 168, b-gal −, 24 h on Nutrient Agar, 150 mg/l indicator, 100 mg/l IPTG; as to C: Color of colonies: key: −: absent; +/−: weak; +: strong; ++: very strong; as to G: Growth of colonies: key: −: absent; +/−: weak; +: strong; ++: very strong
Citrobacter freundii 181 = assay: as above; conditions: Citrobacter freundii strain 181, b-gal +; 24 h on Nutrient Agar, 150 mg/l indicator, 100 mg/l IPTG; as to C: Color of colonies: key: −: absent; +/−: weak; +: strong; ++: very strong; as to G: Growth of colonies: key: −: absent; +/−: weak; +: strong; ++: very strong
[9] = system: Staphylococcus intermedius 31; assay: as above; conditions: Staphylococcus intermedius strain 31, b-gal +; 24 h on Nutrient Agar, 150 mg/l indicator, 100 mg/l IPTG
Salmonella bongori 81 = assay: as above; conditions: Salmonella bongori strain 81, b-gal +; 24 h on Nutrient Agar, 150 mg/l indicator, 100 mg/l IPTG; as to C: Color of colonies: key: −: absent; +/−: weak/variable; +: strong; as to G: Growth of colonies: key: −: absent; +/−: weak; +: strong; ++: very strong
Salmonella illa 73 = assay: as above; conditions: Salmonella illa strain 73, b-gal +; 24 h on Nutrient Agar, 150 mg/l indicator, 100 mg/l IPTG; also: key: −: absent; +/−: weak; +: strong; ++: very strong
Escherichia coli 270 = assay: as above; conditions: Escherichia coli strain 270, b-gal +; 24 h on Nutrient Agar, 150 mg/l indicator, 100 mg/l IPTG; as to C: Color of colonies: key: −: absent; +/−: weak; +: strong; ++: very strong; as to G: Growth of colonies: key: −: absent; +/−: weak; +: strong; ++: very strong
[10] = system: Yersinia enterocolitica 175; assay: as above; conditions: Yersinia enterocolitica strain 175, b-gal +/−; 24 h on Nutrient Agar, 150 mg/l indicator, 100 mg/l IPTG; as to G: Growth of colonies: key: −: absent; +/−: weak; +: strong; ++: very strong
[11] = system: Listeria monocytogenes (4b) 290; assay: as above; conditions: Listeria monocytogenes (4b) strain 290, b-gal −; 24 h on Nutrient Agar, 150 mg/l indicator, 100 mg/l IPTG; as to C: Color of colonies: key: −: absent; +/−: weak; +: strong; ++: very strong; as to F: Fluorescence of colonies: key: −: absent; +/−: weak; +: strong; ++: very strong
Shigella boydii 135 = assay: as above; conditions: Shigella boydii strain 135, b-gal −; 24 h on Nutrient Agar, 150 mg/l indicator, 100 mg/l IPTG; also: key: −: absent; +/−: weak; +: strong; ++: very strong
Escherichia coli = assay: IN and IO staining of bacterial colonies under anaerobic conditions
Description: Nutrient Agar plates containing 150 mg/l of various substrates and 100 mg/l IPTG were inoculated with Escherichia coli. Plates were put in an anaerobic jar (Anaerojar, Oxoid), an AnaeroGen sachet (Oxoid) was added, the jar was closed and incubated for 24 hours at 37° C.
IN staining cannot be used under anaerobic conditions.

Serratia marcescens 40 = assay: IO staining of colonies of beta-D-galactosidase positive/negative bacteria (Table IVb); conditions: Serratia marcescens strain 40, b-gal +; 24 h on Nutrient Agar, 150 mg/l indicator, 100 mg/l IPTG; as to G: Growth of colonies: key: −: absent; +/−: weak; +: strong; ++: very strong
[12] = Nutrient Agar plates, anaerobically incubated with E. coli

O=C(c1ccccc1)c1ccccc1-n1cc(O[C@@H]2O[C@H](CO)[C@H](O)[C@H](O)[C@H]2O)c2c(Cl)c(Br)ccc21 [Indicator I22a, 1-(2-Benzoylphenyl)-5-bromo-4-chloro-1H-indol-3-yl-beta-D-galactopyranoside]
C: Color of colonies [1]: + | F: Fluorescence of colonies [1]: +/− | G: Growth of colonies [1]: + | C: Color of colonies [2]: + | F: Fluorescence of colonies [2]: +/− | G: Growth of colonies [2]: + | C: Color of colonies [3]: − | F: Fluorescence of colonies [3]: − | G: Growth of colonies [3]: + | F: Fluorescence of colonies (Staphylococcus aureus 2): − | G: Growth of colonies (Staphylococcus aureus 2): − | C: Color of colonies (Staphylococcus aureus 2; footnote 2: S. aureus natural color): − | C: Color of colonies (Shigella sonnei 133): + | F: Fluorescence of colonies (Shigella sonnei 133): +/− | G: Growth of colonies (Shigella sonnei 133): + | C: Color of colonies [4]: + | F: Fluorescence of colonies [4]: +/− | G: Growth of colonies [4]: + | C: Color of colonies [5]: − | F: Fluorescence of colonies [5]: − | G: Growth of colonies [5]: + | C: Color of colonies [6]: − | F: Fluorescence of colonies [6]: − | G: Growth of colonies [6]: − | C: Color of colonies (Enterobacter cloacae 245): + | F: Fluorescence of colonies (Enterobacter cloacae 245): +/− | G: Growth of colonies (Enterobacter cloacae 245): + | C: Color of colonies (Aeromonas hydrophila 292): +/− | F: Fluorescence of colonies (Aeromonas hydrophila 292): +/− | G: Growth of colonies (Aeromonas hydrophila 292): + | C: Color of colonies [7]: − | F: Fluorescence of colonies [7]: − | G: Growth of colonies [7]: − | C: Color of colonies (Escherichia coli 61): + | F: Fluorescence of colonies (Escherichia coli 61): +/− | G: Growth of colonies (Escherichia coli 61): + | C: Color of colonies (Bacillus subtilis 65): − | F: Fluorescence of colonies (Bacillus subtilis 65): − | G: Growth of colonies (Bacillus subtilis 65): − | C: Color of colonies [8]: − | G: Growth of colonies [8]: + | F: Fluorescence of colonies ([8]; footnote 1: blue autofluorescence): +^1 | C: Color of colonies (Citrobacter freundii 181): + | F: Fluorescence of colonies (Citrobacter freundii 181): +/− | G: Growth of colonies (Citrobacter freundii 181): + | C: Color of colonies [9]: − | F: Fluorescence of colonies [9]: − | G: Growth of colonies [9]: − | C: Color of colonies (Salmonella bongori 81): +/− | F: Fluorescence of colonies (Salmonella bongori 81): − | G: Growth of colonies (Salmonella bongori 81): + | C: Color of colonies (Salmonella illa 73): − | F: Fluorescence of colonies (Salmonella illa 73): − | G: Growth of colonies (Salmonella illa 73): + | C: Color of colonies (Escherichia coli 270): + | F: Fluorescence of colonies (Escherichia coli 270): +/− | G: Growth of colonies (Escherichia coli 270): + | C: Color of colonies [10]: − | F: Fluorescence of colonies [10]: − | G: Growth of colonies [10]: + | C: Color of colonies [11]: − | F: Fluorescence of colonies [11]: − | G: Growth of colonies [11]: − | C: Color of colonies (Shigella boydii 135): − | F: Fluorescence of colonies (Shigella boydii 135): − | G: Growth of colonies (Shigella boydii 135): + | Localization of stain under anaerobic conditions (Escherichia coli; E. coli, anaerobic, 24 hours at 37° C.): perfect localization | C: Color of colonies (Escherichia coli; [12]): o-r | D: Diffusion around colonies (Escherichia coli; [12]): − | G: Growth of colonies (Escherichia coli; [12]): + | I: Intensity of color (Escherichia coli; [12]): + | L: Localization on colonies (Escherichia coli; [12]): ++ | S: Size of colonies (Escherichia coli; [12]): 0.5 mm | C: Color of colonies (Serratia marcescens 40): + | F: Fluorescence of colonies (Serratia marcescens 40): +/− | G: Growth of colonies (Serratia marcescens 40): +
